Drawing on patent US7868026B2, “Therapeutic compounds” (Pfizer Inc., priority 2005, dated 2011), this text covers IC50 and Ki for 13 compounds.

Some results are limits rather than exact numbers.

For the first assay, the target named is T1, CYP3A4 (Homo sapiens, UniProt P08684). Description: Determination of IC50 against CYP3A4 by measurement of inhibition of testosterone metabolism (human liver microsomes, 6-β-OH-testosterone by LC-MS/MS). The format is biochemical. The arrangement: 0.1 mg/mL human liver microsomes. Conditions: read-out: IC50 (Testo.). As for the experimental part: 2. Determination of IC50 Against CYP3A4 by Measurement of Inhibition of Testosterone Metabolism
T1 sequence (P08684 whole entry): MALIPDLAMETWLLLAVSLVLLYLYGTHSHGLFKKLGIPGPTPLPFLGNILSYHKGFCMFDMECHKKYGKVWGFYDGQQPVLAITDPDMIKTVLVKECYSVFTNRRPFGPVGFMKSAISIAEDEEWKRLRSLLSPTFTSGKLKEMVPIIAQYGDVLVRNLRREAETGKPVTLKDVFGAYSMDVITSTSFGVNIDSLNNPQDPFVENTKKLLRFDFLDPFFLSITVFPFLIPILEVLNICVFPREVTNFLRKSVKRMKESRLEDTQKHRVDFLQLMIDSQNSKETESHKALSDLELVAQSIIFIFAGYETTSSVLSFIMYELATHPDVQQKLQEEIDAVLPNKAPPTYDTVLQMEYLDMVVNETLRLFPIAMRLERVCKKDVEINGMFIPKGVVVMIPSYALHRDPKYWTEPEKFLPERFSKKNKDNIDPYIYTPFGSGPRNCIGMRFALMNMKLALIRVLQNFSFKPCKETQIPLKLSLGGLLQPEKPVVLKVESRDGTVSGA
This assay was performed using a standard 96 well plate design. […] The incubation substrate mix contains 25 μM testosterone, 0.1 mg/mL human liver microsomes, 1 mM NADPH, and potassium phosphate buffer (100 mM, pH 7.4). Quantitation of metabolite peak area ratio against an internal standard is determined by LC-MS/MS analysis. The production of 6-β-OH-testosterone from testosterone metabolism is determined after incubation for eight minutes by comparison to a standard curve generated for the metabolite
Samples were analyzed in the MRM mode using a Sciex API 3000 mass spectrometer (Applied Biosystems, Foster City, Calif.) with a Paradigm MS4 binary pump (Michrom BioResources Inc., Auburn, Calif.) and a LEAP CTC PAL autosampler (LEAP Technologies, Carrboro, N.C.). A Phenomenex Synergi, 4μ, Polar-RP, 10×2.0 mm column (Phenomenex, Torrance, Calif.) was used for separation with a mobile phase composition of: 0.1% formic acid in water (A) and: 0.1% formic acid in methanol (B). The following gradient was used: […]
The sample injection volume was 10 μL and flow was split post-column with 0.4 mL/min going to the mass spectrometer. Analysis was performed using the following API 3000 mass spectrometer settings: […]
(In general: Liver microsomes are a subcellular fraction often used to study metabolism.)
As for `CC1CCN(C(=O)c2ccccc2S(=O)(=O)Nc2cccnc2)CC1` [Example 41, 2-[(4-methylpiperidin-1-yl)carbonyl]-N-pyridin-3-ylbenzenesulfonamide], the IC50 came out at 83.4 nM.
With `CC(C)CCNC(=O)c1ccccc1S(=O)(=O)Nc1cccnc1` [Example 42, N-(3-methylbutyl)-2-[(pyridin-3-ylamino)sulfonyl]benzamide], the IC50 was 51.5 nM.
With `O=C(NCc1cccc(F)c1)c1ccccc1S(=O)(=O)Nc1cccnc1` [Example 43, N-(3-fluorobenzyl)-2-[(pyridin-3-ylamino)sulfonyl]benzamide], the IC50 was 21.7 nM.
Consider `CC(C)(C)CNC(=O)c1ccccc1S(=O)(=O)Nc1cccnc1` [Example 44, N-(2,2-dimethylpropyl)-2-[(pyridin-3-ylamino)sulfonyl]benzamide], for which the IC50 worked out at 167 nM.
In the case of `COc1cccc(OC)c1CNC(=O)c1ccccc1S(=O)(=O)Nc1cccnc1` [Example 45, N-(2,6-dimethoxybenzyl)-2-[(pyridin-3-ylamino)sulfonyl]benzamide], the IC50 amounted to 42 nM.
Same read-out and setting: under `COc1cccc(CNC(=O)c2ccccc2S(=O)(=O)Nc2cccnc2)c1` [Example 46, N-(3-methoxybenzyl)-2-[(pyridin-3-ylamino)sulfonyl]benzamide] stands 23 nM; under `CCCCCN(C)C(=O)c1ccccc1S(=O)(=O)Nc1cccnc1` [Example 47, N-methyl-N-pentyl-2-[(pyridin-3-ylamino)sulfonyl]benzamide], 30 nM; under `O=C(NCC1CC1)c1ccccc1S(=O)(=O)Nc1cccnc1` [Example 48, N-(cyclopropylmethyl)-2-[(pyridin-3-ylamino)sulfonyl]benzamide], 335 nM.
Turning to `CC(C)NC(=O)c1ccccc1S(=O)(=O)Nc1cccnc1` [Example 49, N-isopropyl-2-[(pyridin-3-ylamino)sulfonyl]benzamide], the IC50 was above 500 nM.
Same read-out and setting: next, `CCCNC(=O)c1ccccc1S(=O)(=O)Nc1cccnc1` [Example 50, N-propyl-2-[(pyridin-3-ylamino)sulfonyl]benzamide]: 371 nM.
Consider `COc1cc(CNC(=O)c2ccccc2S(=O)(=O)Nc2cccnc2)cc(OC)c1` [Example 51, N-(3,5-dimethoxybenzyl)-2-[(pyridin-3-ylamino)sulfonyl]benzamide], for which the IC50 turned out to be 57 nM.
In the case of `O=C(NCc1cccc2[nH]ccc12)c1ccccc1S(=O)(=O)Nc1cccnc1` [Example 52, N-(1H-indol-4-ylmethyl)-2-[(pyridin-3-ylamino)sulfonyl]benzamide], the IC50 was determined as 73 nM.
In the case of `COc1ccc(CNC(=O)c2ccccc2S(=O)(=O)Nc2cccnc2)c(OC)c1` [Example 53, N-(2,4-dimethoxybenzyl)-2-[(pyridin-3-ylamino)sulfonyl]benzamide], the IC50 was 49 nM.

The next assay deals with T1, CYP3A4. Description: Determination of IC50 against CYP3A4 by measurement of inhibition of midazolam metabolism (human liver microsomes, 1-hydroxymidazolam by LC-MS/MS). Format: biochemical. Also on record: 0.1 mg/mL human liver microsomes. Particulars: 2 μM midazolam, 0.1 mg/mL human liver microsomes. The gist of the method:
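Human liver microsomes (0.1 mg/mL) incubated 8 min with 2 μM midazolam and 1 mM NADPH in 100 mM potassium phosphate, pH 7.4. 1-Hydroxymidazolam quantified by LC-MS/MS (MRM) as peak area ratio to internal standard against a metabolite standard curve.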
Take `CC1CCN(C(=O)c2ccccc2S(=O)(=O)Nc2cccnc2)CC1` [Example 41, 2-[(4-methylpiperidin-1-yl)carbonyl]-N-pyridin-3-ylbenzenesulfonamide]: the IC50 was determined as 62.8 nM.
Take `CC(C)CCNC(=O)c1ccccc1S(=O)(=O)Nc1cccnc1` [Example 42, N-(3-methylbutyl)-2-[(pyridin-3-ylamino)sulfonyl]benzamide]: the IC50 was 35.9 nM.
On the same count and under the same terms, next, `O=C(NCc1cccc(F)c1)c1ccccc1S(=O)(=O)Nc1cccnc1` [Example 43, N-(3-fluorobenzyl)-2-[(pyridin-3-ylamino)sulfonyl]benzamide]: 13.4 nM; `CC(C)(C)CNC(=O)c1ccccc1S(=O)(=O)Nc1cccnc1` [Example 44, N-(2,2-dimethylpropyl)-2-[(pyridin-3-ylamino)sulfonyl]benzamide]: 72 nM.
For `COc1cccc(OC)c1CNC(=O)c1ccccc1S(=O)(=O)Nc1cccnc1` [Example 45, N-(2,6-dimethoxybenzyl)-2-[(pyridin-3-ylamino)sulfonyl]benzamide], the IC50 stood at 20 nM.
Regarding `COc1cccc(CNC(=O)c2ccccc2S(=O)(=O)Nc2cccnc2)c1` [Example 46, N-(3-methoxybenzyl)-2-[(pyridin-3-ylamino)sulfonyl]benzamide], the 50% inhibitory concentration (IC50) is 23 nM.
`CCCCCN(C)C(=O)c1ccccc1S(=O)(=O)Nc1cccnc1` [Example 47, N-methyl-N-pentyl-2-[(pyridin-3-ylamino)sulfonyl]benzamide]: the IC50 came to 26 nM.
On to `O=C(NCC1CC1)c1ccccc1S(=O)(=O)Nc1cccnc1` [Example 48, N-(cyclopropylmethyl)-2-[(pyridin-3-ylamino)sulfonyl]benzamide], for which the IC50 amounted to 327 nM.
Consider `CC(C)NC(=O)c1ccccc1S(=O)(=O)Nc1cccnc1` [Example 49, N-isopropyl-2-[(pyridin-3-ylamino)sulfonyl]benzamide], for which the IC50 came out at 328 nM.
On to `CCCNC(=O)c1ccccc1S(=O)(=O)Nc1cccnc1` [Example 50, N-propyl-2-[(pyridin-3-ylamino)sulfonyl]benzamide], for which the half-maximal inhibitory concentration (IC50) came out at 254 nM.
With `COc1cc(CNC(=O)c2ccccc2S(=O)(=O)Nc2cccnc2)cc(OC)c1` [Example 51, N-(3,5-dimethoxybenzyl)-2-[(pyridin-3-ylamino)sulfonyl]benzamide], the IC50 amounted to 34 nM.
For `O=C(NCc1cccc2[nH]ccc12)c1ccccc1S(=O)(=O)Nc1cccnc1` [Example 52, N-(1H-indol-4-ylmethyl)-2-[(pyridin-3-ylamino)sulfonyl]benzamide], the 50% inhibitory concentration (IC50) was 27 nM.
Take `COc1ccc(CNC(=O)c2ccccc2S(=O)(=O)Nc2cccnc2)c(OC)c1` [Example 53, N-(2,4-dimethoxybenzyl)-2-[(pyridin-3-ylamino)sulfonyl]benzamide]: the IC50 was determined as 24 nM.

In another assay the target is T1, CYP3A4. Description: Determination of compound Kiapp against recombinant CYP3A4 enzyme (BFC fluorescent substrate). The format is biochemical. Particulars: Baculo. enzyme preparation, read-out: Kiapp (BFC, Baculo.). The procedure, abridged:
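Kiapp derived from initial velocities over the first 5 min of BFC (5 uM) oxidation, using Morrison's tight-binding equation for non-partial and Szedlacsek's for partial inhibitors. Inhibitor first pre-incubated ≥30 min with CYP3A4 (5.5 or 8 nM, ±b5) in pH 7.0 phosphate/TCEP/2% DMF at room temperature; 200 uM NADPH initiated.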
Take `CC1CCN(C(=O)c2ccccc2S(=O)(=O)Nc2cccnc2)CC1` [Example 41, 2-[(4-methylpiperidin-1-yl)carbonyl]-N-pyridin-3-ylbenzenesulfonamide]: the Ki turned out to be 486 nM.
Turning to `CC(C)CCNC(=O)c1ccccc1S(=O)(=O)Nc1cccnc1` [Example 42, N-(3-methylbutyl)-2-[(pyridin-3-ylamino)sulfonyl]benzamide], the Ki came to 378 nM.
Regarding `O=C(NCc1cccc(F)c1)c1ccccc1S(=O)(=O)Nc1cccnc1` [Example 43, N-(3-fluorobenzyl)-2-[(pyridin-3-ylamino)sulfonyl]benzamide], the Ki is 269 nM.
As to `CC(C)(C)CNC(=O)c1ccccc1S(=O)(=O)Nc1cccnc1` [Example 44, N-(2,2-dimethylpropyl)-2-[(pyridin-3-ylamino)sulfonyl]benzamide], the Ki worked out at 617 nM.
In the case of `COc1cccc(OC)c1CNC(=O)c1ccccc1S(=O)(=O)Nc1cccnc1` [Example 45, N-(2,6-dimethoxybenzyl)-2-[(pyridin-3-ylamino)sulfonyl]benzamide], the Ki amounted to 382 nM.
Take `COc1cccc(CNC(=O)c2ccccc2S(=O)(=O)Nc2cccnc2)c1` [Example 46, N-(3-methoxybenzyl)-2-[(pyridin-3-ylamino)sulfonyl]benzamide]: the Ki stood at 325 nM.
On to `CCCCCN(C)C(=O)c1ccccc1S(=O)(=O)Nc1cccnc1` [Example 47, N-methyl-N-pentyl-2-[(pyridin-3-ylamino)sulfonyl]benzamide], for which the Ki came out at 332 nM.
Turning to `O=C(NCC1CC1)c1ccccc1S(=O)(=O)Nc1cccnc1` [Example 48, N-(cyclopropylmethyl)-2-[(pyridin-3-ylamino)sulfonyl]benzamide], the Ki was above 1000 nM.
For the compound `CC(C)NC(=O)c1ccccc1S(=O)(=O)Nc1cccnc1` [Example 49, N-isopropyl-2-[(pyridin-3-ylamino)sulfonyl]benzamide], the Ki was above 1000 nM.
On to `CCCNC(=O)c1ccccc1S(=O)(=O)Nc1cccnc1` [Example 50, N-propyl-2-[(pyridin-3-ylamino)sulfonyl]benzamide], for which the Ki is above 1000 nM.
Take `COc1cc(CNC(=O)c2ccccc2S(=O)(=O)Nc2cccnc2)cc(OC)c1` [Example 51, N-(3,5-dimethoxybenzyl)-2-[(pyridin-3-ylamino)sulfonyl]benzamide]: the Ki came out at 680 nM.
As to `O=C(NCc1cccc2[nH]ccc12)c1ccccc1S(=O)(=O)Nc1cccnc1` [Example 52, N-(1H-indol-4-ylmethyl)-2-[(pyridin-3-ylamino)sulfonyl]benzamide], the Ki came to 560 nM.
`COc1ccc(CNC(=O)c2ccccc2S(=O)(=O)Nc2cccnc2)c(OC)c1` [Example 53, N-(2,4-dimethoxybenzyl)-2-[(pyridin-3-ylamino)sulfonyl]benzamide]: the Ki is 613 nM.

The same assay, now with this note: Super. enzyme preparation, read-out: Kiapp (BFC, Super.).
With `CC1CCN(C(=O)c2ccccc2S(=O)(=O)Nc2cccnc2)CC1` [Example 41, 2-[(4-methylpiperidin-1-yl)carbonyl]-N-pyridin-3-ylbenzenesulfonamide], the Ki turned out to be 30.3 nM.
`CC(C)CCNC(=O)c1ccccc1S(=O)(=O)Nc1cccnc1` [Example 42, N-(3-methylbutyl)-2-[(pyridin-3-ylamino)sulfonyl]benzamide]: the Ki amounted to 22.5 nM.
Consider `O=C(NCc1cccc(F)c1)c1ccccc1S(=O)(=O)Nc1cccnc1` [Example 43, N-(3-fluorobenzyl)-2-[(pyridin-3-ylamino)sulfonyl]benzamide], for which the Ki was 16.5 nM.

As usually defined, the IC50 is the point on the concentration scale where inhibition reaches its midpoint.
